The record followed here is patent publication US20160002248A1, “GLS1 INHIBITORS FOR TREATING DISEASE” (Board of Regents, The University of Texas System, priority 2014, published 2016).

In assay [1] the target is T1, purified recombinant human GAC (GLS1) (Homo sapiens, UniProt O94925).
T1 sequence (O94925 55-598 isoform O94925-3 limits assumed): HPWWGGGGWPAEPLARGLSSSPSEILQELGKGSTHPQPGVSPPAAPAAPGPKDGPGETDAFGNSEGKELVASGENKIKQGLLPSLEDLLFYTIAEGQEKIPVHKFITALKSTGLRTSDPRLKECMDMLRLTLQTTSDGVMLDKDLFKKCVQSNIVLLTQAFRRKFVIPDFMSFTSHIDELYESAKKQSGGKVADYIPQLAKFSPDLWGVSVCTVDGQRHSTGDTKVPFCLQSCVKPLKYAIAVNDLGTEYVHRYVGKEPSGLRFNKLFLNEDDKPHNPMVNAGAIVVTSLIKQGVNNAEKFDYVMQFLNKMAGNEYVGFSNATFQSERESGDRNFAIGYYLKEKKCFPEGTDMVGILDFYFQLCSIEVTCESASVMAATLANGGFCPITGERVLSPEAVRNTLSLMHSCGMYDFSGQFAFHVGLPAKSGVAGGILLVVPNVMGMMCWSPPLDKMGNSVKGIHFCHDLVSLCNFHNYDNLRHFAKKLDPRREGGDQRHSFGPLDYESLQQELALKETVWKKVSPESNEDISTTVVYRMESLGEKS
Description: GLS1 Enzymatic Activity Assay (dual-coupled enzymatic assay). It is filed as biochemical. In outline:
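In this coupled fluorometric format, phosphate-activated GAC (2 nM, 50 mM phosphate) is pre-exposed to compound for 10 min before 1 mM glutamine addition. Product is tracked as resorufin (530/590 nm) over time or at 20 min, and potency is derived by logistic fitting.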

For the next assay, the system named is A549 cells. Description: Proliferation Assay (A549 cell viability, Cell Titer Fluor). It is filed as cell-based. The following applies: Homo sapiens, 72 hours. In outline:
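Fluorescence read-out (Cell Titer Fluor, 30 min at 37 °C after reagent) after 72 h compound exposure of A549 cells; EC50 by four-parameter logistic curve fit. Cells: 1000/well, RPMI 1640 + 10% dialyzed FBS, 0.5% DMSO final.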

For `O=C(Cc1ccccc1)Nc1nnc(CCCCc2cnc3[nH]ccc3c2)s1` [Example 24, N-(5-(4-(1H-pyrrolo[2,3-b]pyridin-5-yl)butyl)-1,3,4-thiadiazol-2-yl)-2-phenylacetamide], the IC50 (as a rule, the midpoint of a concentration-inhibition curve) in assay [1] was in the range of 100 to 500 nM. Further, the EC50 (commonly the midpoint of the concentration-response curve) in the assay with A549 cells is > 5000 nM.
With `O=C(NCc1ccccn1)c1cn(CCCCc2cc3c(-c4ccccc4F)c(C4CC4)[nH]c3nn2)nn1` [Example 120, 1-{4-[6-cyclopropyl-5-(2-fluorophenyl)-7H-pyrrolo[2,3-c]pyridazin-3-yl]butyl}-N-(pyridin-2-ylmethyl)-1H-1,2,3-triazole-4-carboxamide], the IC50 in assay [1] was < 100 nM. Besides, the EC50 in the assay with A549 cells was in the range of 100 to 500 nM.
On the same counts, the results for `Cc1ccc(CNC(=O)c2cn(CCCCc3cc4c(-c5cccc(OC(F)(F)F)c5)c(C5CC5)[nH]c4nn3)nn2)cn1` [Example 170, 1-(4-{6-cyclopropyl-5-[3-(trifluoromethoxy)phenyl]-7H-pyrrolo[2,3-c]pyridazin-3-yl}butyl)-N-[(6-methylpyridin-3-yl)methyl]-1H-1,2,3-triazole-4-carboxamide] are < 100 nM and 100 to 500 nM.
On the same counts, the results for `Cc1ccc(CNC(=O)c2cn(CCCCc3cc4cc(-c5cccc(F)c5)[nH]c4nn3)nn2)cn1` [Example 202, 1-{4-[6-(3-fluorophenyl)-7H-pyrrolo[2,3-c]pyridazin-3-yl]butyl}-N-[(6-methylpyridin-3-yl)methyl]-1H-1,2,3-triazole-4-carboxamide] are < 100 nM and 100 to 500 nM.
On to `CC(=O)N1CCC(c2cc3cc(CCCCn4cc(C(=O)NCc5cc(OC(F)(F)F)ccc5F)nn4)nnc3[nH]2)CC1` [Example 156, 1-{4-[6-(1-acetylpiperidin-4-yl)-7H-pyrrolo[2,3-c]pyridazin-3-yl]butyl}-N-{[2-fluoro-5-(trifluoromethoxy)phenyl]methyl}-1H-1,2,3-triazole-4-carboxamide], for which the IC50 in assay [1] is < 100 nM. In addition, the EC50 in the assay with A549 cells was in the range of 100 to 500 nM.
In the same order, the values of `O=C(NCc1cccc(OC(F)(F)F)c1)c1cn(CCCCc2cc3c(-c4ccccn4)c(-c4ccccc4F)[nH]c3nn2)nn1` [Example 175, 1-{4-[6-(2-fluorophenyl)-5-(pyridin-2-yl)-7H-pyrrolo[2,3-c]pyridazin-3-yl]butyl}-N-{[3-(trifluoromethoxy)phenyl]methyl}-1H-1,2,3-triazole-4-carboxamide] are < 100 nM and 500 to 5000 nM.
In the same order, the values of `Cc1ccc(CNC(=O)c2cn(CCCCc3cc4c(-c5cccc(C(C)(C)O)c5)c(C5CC5)[nH]c4nn3)nn2)cn1` [Example 160, 1-(4-{6-cyclopropyl-5-[3-(2-hydroxypropan-2-yl)phenyl]-7H-pyrrolo[2,3-c]pyridazin-3-yl}butyl)-N-[(6-mcthylpyridin-3-yl)methyl]-1H-1,2,3-triazole-4-carboxamide] are < 100 nM and 100 to 500 nM.
On the same counts, the results for `Cc1ccc(CNC(=O)c2cn(CCCCc3cc4cc(C5CN(C(=O)OC(C)(C)C)C5)[nH]c4nn3)nn2)cn1` [Example 94, tert-butyl 3-{3-[4-(4-{[(6-methylpyridin-3-yl)methyl]carbamoyl}-1H-1,2,3-triazol-1-yl)butyl]-7H-pyrrolo[2,3-c]pyridazin-6-yl}azetidine-1-carboxylate] are < 100 nM and 100 to 500 nM.
Turning to `O=C(NCc1ccccn1)c1cn(CCCCc2cc3c(-c4ccc(Cl)cc4)c(C4CC4)[nH]c3nn2)nn1` [Example 117, 1-{4-[5-(4-chlorophenyl)-6-cyclopropyl-7H-pyrrolo[2,3-c]pyridazin-3-yl]butyl}-N-(pyridin-2-ylmethyl)-1H-1,2,3-triazole-4-carboxamide], in assay [1], the IC50 is < 100 nM. This compound yielded an EC50 in the assay on A549 cells of 100 to 500 nM.
On the same counts, the results for `COc1ccc(CNC(=O)c2cn(CCCCc3cc4cc(C5CC5)[nH]c4nn3)nn2)cn1` [Example 42, 1-(4-{6-cyclopropyl-7H-pyrrolo[2,3-c]pyridazin-3-yl}butyl)-N-[(6-methoxypyridin-3-yl)methyl]-1H-1,2,3-triazole-4-carboxamide] are < 100 nM and 500 to 5000 nM.
